Data on 16 compounds can be found in patent US20230192700A1, “PYRAZOLOPYRAZINES ACTING ON CANCERS VIA INHIBITION OF CDK12” (Bayer Aktiengesellschaft, priority 2020, published 2023).

Assay type in all cases: cell-based
Assay [1] relates to CAL-120 human breast adenocarcinoma cells. The assay can be described thus: Proliferation assay CAL-120 (crystal violet). The conditions noted are these: CAL-120 cells, 4 days, median, read-out: Prolif-CAL-120— IC50 - [mol/l] (median). The method in brief:
(§1)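 Cells seeded at 4,000/well in medium with 10% fetal calf serum, dosed after 24 h (0.01-10 micromol/L, 0.1% DMSO) and grown 4 days. Crystal violet staining read at 595 nm, normalised to zero-point plate (0%) and untreated cells (100%); IC50 by 4-parameter fit.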

The target of a further assay is T1, CYCLIN K (Homo sapiens, UniProt O75909).
T1 construct: endogenous in cells; host or cells: CAL-120 human breast cancer cells (DSMZ ACC 459)
T1 sequence (O75909 whole entry): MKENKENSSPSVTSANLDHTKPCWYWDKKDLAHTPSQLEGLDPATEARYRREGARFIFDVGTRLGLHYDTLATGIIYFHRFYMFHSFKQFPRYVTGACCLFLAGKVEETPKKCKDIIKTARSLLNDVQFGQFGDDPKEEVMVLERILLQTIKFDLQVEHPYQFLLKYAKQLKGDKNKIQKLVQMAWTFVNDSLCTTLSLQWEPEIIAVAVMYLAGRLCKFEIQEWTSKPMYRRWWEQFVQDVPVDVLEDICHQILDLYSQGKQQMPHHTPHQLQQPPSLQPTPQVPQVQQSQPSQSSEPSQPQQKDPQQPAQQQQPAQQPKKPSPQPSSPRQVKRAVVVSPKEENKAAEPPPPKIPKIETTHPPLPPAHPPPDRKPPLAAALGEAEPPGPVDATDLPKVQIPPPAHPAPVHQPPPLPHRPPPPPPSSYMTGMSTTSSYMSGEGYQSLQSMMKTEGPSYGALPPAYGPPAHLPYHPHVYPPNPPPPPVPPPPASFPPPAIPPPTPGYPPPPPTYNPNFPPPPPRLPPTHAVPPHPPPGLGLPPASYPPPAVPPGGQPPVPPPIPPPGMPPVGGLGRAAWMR
T1 sequence (Q9NYV4 whole entry partner): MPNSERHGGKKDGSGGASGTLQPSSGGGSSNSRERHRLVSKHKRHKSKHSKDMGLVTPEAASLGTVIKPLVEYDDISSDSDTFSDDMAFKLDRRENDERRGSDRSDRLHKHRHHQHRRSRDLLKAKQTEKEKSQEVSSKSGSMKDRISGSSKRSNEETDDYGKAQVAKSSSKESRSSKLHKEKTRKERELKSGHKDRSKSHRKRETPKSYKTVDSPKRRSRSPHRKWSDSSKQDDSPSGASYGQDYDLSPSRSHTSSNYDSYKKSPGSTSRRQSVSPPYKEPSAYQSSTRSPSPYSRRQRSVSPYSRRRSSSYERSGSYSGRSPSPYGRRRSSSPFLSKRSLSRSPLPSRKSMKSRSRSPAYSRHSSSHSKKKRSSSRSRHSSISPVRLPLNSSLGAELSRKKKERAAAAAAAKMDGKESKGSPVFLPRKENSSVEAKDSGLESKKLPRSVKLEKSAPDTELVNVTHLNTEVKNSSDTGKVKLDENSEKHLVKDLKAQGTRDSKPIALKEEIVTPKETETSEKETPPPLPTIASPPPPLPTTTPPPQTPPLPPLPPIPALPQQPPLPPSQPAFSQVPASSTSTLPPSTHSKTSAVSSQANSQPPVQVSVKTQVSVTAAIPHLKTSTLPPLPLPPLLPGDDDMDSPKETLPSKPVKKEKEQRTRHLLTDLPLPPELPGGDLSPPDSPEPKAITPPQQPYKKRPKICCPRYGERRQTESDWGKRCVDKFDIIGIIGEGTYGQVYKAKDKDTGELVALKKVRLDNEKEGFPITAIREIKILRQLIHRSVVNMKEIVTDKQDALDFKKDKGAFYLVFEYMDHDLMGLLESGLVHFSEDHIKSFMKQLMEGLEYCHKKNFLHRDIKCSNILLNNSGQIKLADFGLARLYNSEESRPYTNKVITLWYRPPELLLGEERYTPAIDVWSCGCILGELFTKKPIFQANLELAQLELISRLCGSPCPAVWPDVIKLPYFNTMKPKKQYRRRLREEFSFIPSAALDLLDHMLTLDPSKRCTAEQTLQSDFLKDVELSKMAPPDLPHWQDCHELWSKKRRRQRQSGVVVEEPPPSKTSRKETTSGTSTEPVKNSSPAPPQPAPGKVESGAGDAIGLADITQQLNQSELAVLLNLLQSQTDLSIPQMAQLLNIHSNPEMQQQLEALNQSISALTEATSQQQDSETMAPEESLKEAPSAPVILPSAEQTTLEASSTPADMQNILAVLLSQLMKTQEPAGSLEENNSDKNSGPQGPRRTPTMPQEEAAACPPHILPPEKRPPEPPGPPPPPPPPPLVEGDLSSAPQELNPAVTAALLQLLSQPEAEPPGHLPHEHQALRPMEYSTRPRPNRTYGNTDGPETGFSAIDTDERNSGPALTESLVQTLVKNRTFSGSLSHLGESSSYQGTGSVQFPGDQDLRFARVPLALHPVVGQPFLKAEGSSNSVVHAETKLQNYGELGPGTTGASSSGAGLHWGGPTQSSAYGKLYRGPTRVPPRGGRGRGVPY
The experiment in a line: CYCLIN K nuclear protein level: immunofluorescence/high content analysis in CAL-120 cells. The note with it: 24 h, nuclear CCNK staining intensity, median, read-out: CYCLIN K degradation IF, DC50- [mol/l] (median). The method, boiled down: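 CAL-120 cells were incubated with compound in dose-response for 24 h at 37° C, then fixed, immunostained for CYCLIN K and Hoechst-counterstained. Confocal imaging gave nuclear intensity. DC50 is the concentration giving 50% reduction of nuclear CCNK staining relative to DMSO and reference controls.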

Another assay addresses T2, CDK12 (Homo sapiens, UniProt Q9NYV4).
T2 construct: endogenous in cells; host or cells: CAL-120 human breast cancer cells (DSMZ ACC 459)
The assay can be described thus: CDK12 nuclear protein level: immunofluorescence/high content analysis in CAL-120 cells. The conditions noted are these: for DC50: CAL-120 cells, 24 h, nuclear CDK12 staining intensity, median, read-out: CDK12 degradation IF DC50 - [mol/l] (median); for (IC50 CDK12 high ATP) to (Degradation DC50 CDK12) ratio: ratio of IC50 CDK12 hATP (2 mM ATP) to DC50 CDK12 (IF, CAL-120). The method, boiled down:
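Cells were exposed to compounds in dose-response for 24 h at 37 °C, then PFA-fixed, immunostained for CDK12 and counterstained with Hoechst before confocal imaging. Nuclear CDK12 intensity was normalized to DMSO and control. DC50 is the concentration giving 50% reduction of nuclear staining.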

The test system of assay [2] is MDA-MB-231 human breast cancer cells. The assay can be described thus: Proliferation assay MDA-MB-231 (crystal violet). The note with it: MDA-MB-231 cells, 4 days, median, read-out: Prolif-MDA MB231 IC50 - [mol/l] (median). The method in brief:
as §1

Each structure is given as a SMILES string. Where two headings read alike, the source gives them in different places. Bounds are passed on as bounds.

T2 sequence (Q9NYV4 whole entry): as the sequence (Q9NYV4 whole entry partner) above
T2 sequence (O75909 whole entry partner): as the sequence (O75909 whole entry) above

Take `OCCn1nc(NCc2nc3ccccc3[nH]2)c2ncc(C3CC3)nc21` [Example 66, 2-(3-{[(1H-benzimidazol-2-yl)methyl]amino}-6-cyclopropyl-1H-pyrazolo[3,4-b]pyrazin-1-yl)ethan-1-ol]: the IC50 in assay [1] (Homo sapiens, CAL-120, 96 h) was 160 nM; in assay [2] (Homo sapiens, MDA-MB-231, 96 h) it was 386 nM. Further, the DC50 at CYCLIN K was found to be 20.3 nM; on CDK12, 19.4 nM. Besides, the “(IC50 CDK12 high ATP) to (Degradation DC50 CDK12) ratio” value at CDK12 was greater than 1116.
On to `Fc1ccc2[nH]c(CNc3nn(C4CCOCC4)c4nc(C5CC5)cnc34)nc2c1F` [Example 32, 6-cyclopropyl-N-[(4,5-difluoro-1H-benzimidazol-2-yl)methyl]-1-(oxan-4-yl)-1H-pyrazolo[3,4-b]pyrazin-3-amine], for which the IC50 in assay [1] (Homo sapiens, CAL-120, 96 h) was determined as 2.12 nM; in assay [2] (Homo sapiens, MDA-MB-231, 96 h), 5.52 nM. The DC50 at CYCLIN K turned out to be 0.877 nM; at CDK12, 11.5 nM.
For `CN1CCC(n2nc(NCc3nc4ccccc4[nH]3)c3ncc(C4CC4)nc32)CC1` [Example 1, N-[(1H-benzimidazol-2-yl)methyl]-6-cyclopropyl-1-(1-methylpiperidin-4-yl)-1H-pyrazolo[3,4-b]pyrazin-3-amine], the IC50 in assay [1] (Homo sapiens, CAL-120, 96 h) was found to be 32.8 nM; in assay [2] (Homo sapiens, MDA-MB-231, 96 h) it was 24.9 nM. Also, the DC50 at CYCLIN K stood at 7.1 nM; on CDK12, 4.2 nM. On CDK12, the “(IC50 CDK12 high ATP) to (Degradation DC50 CDK12) ratio” value is given as greater than 2380.
The like results for `c1ccc2[nH]c(CNc3nn(CC4CCC4)c4nc(C5CC5)cnc34)nc2c1` [Example 75, N-[(1H-benzimidazol-2-yl)methyl]-1-(cyclobutylmethyl)-6-cyclopropyl-1H-pyrazolo[3,4-b]pyrazin-3-amine] were, in that order, 268 nM, 376 nM, 124 nM, 135 nM and greater than 148.
As for `CC1CC(n2nc(NCc3nc4ccccc4[nH]3)c3ncc(C4CC4)nc32)CCN1C` (racemic) [Example 41, (±)-cis/trans-N-[(1H-benzimidazol-2-yl)methyl]-6-cyclopropyl-1-(1,2-dimethylpiperidin-4-yl)-1H-pyrazolo[3,4-b]pyrazin-3-amine], the IC50 in assay [1] (Homo sapiens, CAL-120, 96 h) was 20.4 nM; in assay [2] (Homo sapiens, MDA-MB-231, 96 h), 67.1 nM. The figures for the DC50 at CYCLIN K and at CDK12 were 2.3 nM and 4.05 nM, respectively.
On the same counts, the results for `Fc1ccc2[nH]c(CNc3nn(C4CCOCC4)c4nc(C5CC5)cnc34)nc2c1` [Example 53, 6-cyclopropyl-N-[(5-fluoro-1H-benzimidazol-2-yl)methyl]-1-(oxan-4-yl)-1H-pyrazolo[3,4-b]pyrazin-3-amine] are 19.7 nM, 23.3 nM, 6.41 nM and 32 nM.
In the case of `COCCC(C)n1nc(NCc2nc3ccccc3[nH]2)c2ncc(C3CC3)nc21` (single isomer, unassigned; (+)) [Example 59, (+)-N-[(1H-benzimidazol-2-yl)methyl]-6-cyclopropyl-1-[4-methoxybutan-2-yl]-1H-pyrazolo[3,4-b]pyrazin-3-amine], the values for the IC50 in assay [1] and in assay [2] were 440 nM and 816 nM, respectively. The figures for the DC50 on CYCLIN K and at CDK12 were 38.6 nM and 32.4 nM, respectively. Moreover, the “(IC50 CDK12 high ATP) to (Degradation DC50 CDK12) ratio” value at CDK12 is greater than 618.
In the case of `CN1CCC(n2nc(NCc3nc4cc(C(F)(F)F)ccc4[nH]3)c3ncc(C4CC4)nc32)CC1` [Example 25, 6-cyclopropyl-1-(1-methylpiperidin-4-yl)-N-{[5-(trifluoromethyl)-1H-benzimidazol-2-yl]methyl}-1H-pyrazolo[3,4-b]pyrazin-3-amine], the IC50 in assay [1] (Homo sapiens, CAL-120, 96 h) came out at 3.14 nM; in assay [2] (Homo sapiens, MDA-MB-231, 96 h), 5.07 nM. Moreover, the DC50 at CYCLIN K came out at 0.543 nM; at CDK12 it was 8.43 nM. Further, the “(IC50 CDK12 high ATP) to (Degradation DC50 CDK12) ratio” value at CDK12 amounted to 2193.
On the same counts, the results for `CC(C)(O)CCn1nc(NCc2nc3ccccc3[nH]2)c2ncc(C3CC3)nc21` [Example 76, 4-(3-{[(1H-benzimidazol-2-yl)methyl]amino}-6-cyclopropyl-1H-pyrazolo[3,4-b]pyrazin-1-yl)-2-methylbutan-2-ol] are 55.7 nM, 124 nM, 8.11 nM, 2.17 nM and greater than 9202.
With `O[C@H]1C[C@H](Cn2nc(NCc3nc4ccccc4[nH]3)c3ncc(C4CC4)nc32)C1` [Example 70, trans-3-[(3-{[(1H-benzimidazol-2-yl)methyl]amino}-6-cyclopropyl-1H-pyrazolo[3,4-b]pyrazin-1-yl)methyl]cyclobutan-1-ol], the IC50 in assay [1] (Homo sapiens, CAL-120, 96 h) was determined as 71.8 nM; in assay [2] (Homo sapiens, MDA-MB-231, 96 h) it was 174 nM. The figures for the DC50 at CYCLIN K and at CDK12 were 11.6 nM and 10.8 nM, respectively.
With `CN(C)CCn1nc(NCc2nc3ccccc3[nH]2)c2ncc(C3CC3)nc21` [Example 68, N-[(1H-benzimidazol-2-yl)methyl]-6-cyclopropyl-1-[2-(dimethylamino)ethyl]-1H-pyrazolo[3,4-b]pyrazin-3-amine], the IC50 in assay [1] (Homo sapiens, CAL-120, 96 h) is 266 nM; in assay [2] (Homo sapiens, MDA-MB-231, 96 h), 645 nM. In addition, the DC50 on CYCLIN K was determined as 20.7 nM; at CDK12 it was 29.1 nM. In addition, the “(IC50 CDK12 high ATP) to (Degradation DC50 CDK12) ratio” value on CDK12 is greater than 687.
`CN1CCCC(n2nc(NCc3nc4ccccc4[nH]3)c3ncc(C4CC4)nc32)CC1` (single isomer, unassigned) [Example 37, (+) or (−)-N-[(1H-benzimidazol-2-yl)methyl]-6-cyclopropyl-1-[(4R*)-1-methylazepan-4-yl]-1H-pyrazolo[3,4-b]pyrazin-3-amine]: the IC50 was found to be 4.14 nM in assay [1] and 15.1 nM in assay [2]. In addition, the DC50 on CYCLIN K turned out to be 1.72 nM; at CDK12, 12.6 nM. In addition, the “(IC50 CDK12 high ATP) to (Degradation DC50 CDK12) ratio” value at CDK12 is recorded as greater than 1589.
`CC1COCCC1n1nc(NCc2nc3ccccc3[nH]2)c2ncc(C3CC3)nc21` (racemic) [Example 42, (±)-cis/trans-N-[(1H-benzimidazol-2-yl)methyl]-6-cyclopropyl-1-(3-methyloxan-4-yl)-1H-pyrazolo[3,4-b]pyrazin-3-amine]: the IC50 in assay [1] (Homo sapiens, CAL-120, 96 h) turned out to be 84.5 nM; in assay [2] (Homo sapiens, MDA-MB-231, 96 h), 148 nM. Moreover, the figures for the DC50 at CYCLIN K and on CDK12 were 17.2 nM and 11.1 nM, respectively. Further, the “(IC50 CDK12 high ATP) to (Degradation DC50 CDK12) ratio” value at CDK12 is listed as greater than 2322.
As to `CN1CCC(n2nc(NCc3nc4cc(F)ccc4[nH]3)c3ncc(C4CC4)nc32)CC1` [Example 4, 6-cyclopropyl-N-[(5-fluoro-1H-benzimidazol-2-yl)methyl]-1-(1-methylpiperidin-4-yl)-1H-pyrazolo[3,4-b]pyrazin-3-amine], the IC50 amounted to 16.3 nM in assay [1] (Homo sapiens, CAL-120, 96 h) and 51.3 nM in assay [2] (Homo sapiens, MDA-MB-231, 96 h). Also, the DC50 on CYCLIN K was determined as 0.914 nM; on CDK12, 4.3 nM.
With `Cc1cnc2c(NCc3nc4ccccc4[nH]3)nn(C3CCN(C)CC3)c2n1` [Example 77, N-[(1H-benzimidazol-2-yl)methyl]-6-methyl-1-(1-methylpiperidin-4-yl)-1H-pyrazolo[3,4-b]pyrazin-3-amine], the IC50 in assay [1] (Homo sapiens, CAL-120, 96 h) was found to be 1040 nM; in assay [2] (Homo sapiens, MDA-MB-231, 96 h), 3000 nM. Besides, the DC50 at CYCLIN K stood at 118 nM; on CDK12 it was 127 nM. In addition, on CDK12, the “(IC50 CDK12 high ATP) to (Degradation DC50 CDK12) ratio” value is greater than 133.
On the same counts, the results for `c1ccc2[nH]c(CNc3nn(C4CCC4)c4nc(C5CC5)cnc34)nc2c1` [Example 49, N-[(1H-benzimidazol-2-yl)methyl]-1-cyclobutyl-6-cyclopropyl-1H-pyrazolo[3,4-b]pyrazin-3-amine] are 122 nM, 200 nM, 25.7 nM, 29.2 nM and greater than 685.
